Assay results taken from ChEMBL document CHEMBL5506061, “Chb-M', an Inhibitor of the RUNX Family Binding to DNA, Induces Apoptosis in p53-Mutated Non-Small Cell Lung Cancer and Inhibits Tumor Growth and Repopulation In Vivo” (J Med Chem, 2024).
Active and inactive are the calls of the source. The rule behind the calls is not given here.

What was measured:
NCI-H2228-Luc [1] = experiment: Anticancer activity against p53-mutated human NCI-H2228-Luc cells assessed as cell viability at 0.3 to 3 uM incubated for 72 hrs by SF - cell counting reagent based colorimetric assay; format: functional; conditions: dose 0.3-3 µM
BJ = experiment: Cytotoxicity against human BJ cells assessed as cell viability at 0.3 to 3 uM incubated for 72 hrs by SF - cell counting reagent based colorimetric assay; format: toxicity; conditions: dose 0.3-3 µM
NCI-H2228-Luc [2] = experiment: Anticancer activity against p53-mutated human NCI-H2228-Luc cells assessed as cell viability incubated for 72 hrs by SF - cell counting reagent based colorimetric assay; format: functional; conditions: dose 0.3-3 µM
NCI-H2228-Luc [3] = experiment: Induction of apoptosis in p53-mutated human NCI-H2228-Luc cells assessed as early apoptotic cells at 0.3 to 3 uM incubated for 72 hrs by Annexin V-FITC and propidium iodide (PI) staining based flow cytometric analysis; format: functional, cell-based; conditions: dose 0.3-3 µM
NCI-H2228-Luc [4] = experiment: Induction of apoptosis in p53-mutated human NCI-H2228-Luc cells assessed as late apoptotic cells at 0.3 to 3 uM incubated for 72 hrs by Annexin V-FITC and propidium iodide (PI) staining based flow cytometric analysis; format: functional, cell-based; conditions: dose 0.3-3 µM
NCI-H2228-Luc [5] = experiment: Induction of apoptosis in p53-mutated human NCI-H2228-Luc cells assessed as decrease in BCL11A mRNA expression at 0.3 to 1 uM incubated for 24 hrs by RT-qPCR analysis; format: functional, cell-based; conditions: dose 0.3-1 µM
NCI-H2228-Luc [6] = experiment: Induction of apoptosis in p53-mutated human NCI-H2228-Luc cells assessed as increase in TAp73 mRNA expression incubated for 24 hrs by RT-qPCR analysis; format: functional, cell-based
NCI-H2228-Luc [7] = experiment: Induction of RUNX1 mRNA level in human NCI-H2228-Luc cells at 0.3 to 3 uM incubated for 24 hrs by RT-qPCR analysis; format: functional, cell-based; conditions: dose 0.3-3 µM
NCI-H2228-Luc [8] = experiment: Induction of RUNX2 mRNA level in human NCI-H2228-Luc cells at 0.3 to 3 uM incubated for 24 hrs by RT-qPCR analysis; format: functional, cell-based; conditions: dose 0.3-3 µM
NCI-H2228-Luc [9] = experiment: Induction of RUNX3 mRNA level in human NCI-H2228-Luc cells at 0.3 to 3 uM incubated for 24 hrs by RT-qPCR analysis; format: functional, cell-based; conditions: dose 0.3-3 µM
NCI-H2228-Luc [10] = experiment: In vivo antitumor activity against human NCI-H2228-Luc cells xenografted in CB17.Cg.Prkdc-scid Lystbg-j/CrlCrlj mouse assessed as reduction in tumor volume at 5 mg/kg, iv (tail vein) administered twice a week (10 injections in total) measured after 3 days; format: functional, organism-based; conditions: time 38.0 day
[11] = Toxicity in CB17.Cg.Prkdc-scid Lystbg-j/CrlCrlj mouse xenografted with human NCI-H2228-Luc cells assessed as change in body weight at 5 mg/kg, iv (tail vein) administered twice a week (10 injections in total) measured after 3 days; format: organism-based; conditions: in vivo, 912 h, time 38 day
NCI-H2228-Luc [12] = experiment: In vivo antitumor activity against human NCI-H2228-Luc cells xenografted in CB17.Cg.Prkdc-scid Lystbg-j/CrlCrlj mouse assessed as prolonged reduction in tumor volume at 5 mg/kg, iv (tail vein) administered twice a week (10 injections in total) measured after 35 days of last dose relative to alectinib and ceritinib; format: functional, organism-based; conditions: time 70.0 day
[13] = Hematological toxicity in CB17.Cg.Prkdc-scid Lystbg-j/CrlCrlj mouse xenografted with human NCI-H2228-Luc cells assessed as decrease in platelets at 10 mg/kg, iv (tail vein) administered twice a week (10 injections in total) measured after 3 days; format: organism-based; conditions: in vivo, 912 h, time 38 day
[14] = Hematological toxicity in wild type mouse C-kit positive fraction of bone marrow cells assessed as decrease in colony forming capacity at 10 uM; format: cell-based; conditions: bone marrow cell
[15] = Hematological toxicity in CB17.Cg.Prkdc-scid Lystbg-j/CrlCrlj mouse xenografted with human NCI-H2228-Luc cells assessed as change in peripheral blood cell count at 320 microg/kg, iv for 3 months; format: organism-based; conditions: in vivo, 0.32 mg/kg, 2190 h, dose 320 µg/kg
NCI-H2228-Luc [16] = experiment: In vivo antitumor activity against human NCI-H2228-Luc cells xenografted in CB17.Cg.Prkdc-scid Lystbg-j/CrlCrlj mouse assessed as reduction in tumor volume at 25 mg/kg, po administered every day (35 administration in total); format: functional, organism-based; conditions: time 35.0 day
NCI-H2228-Luc [17] = experiment: In vivo antitumor activity against human NCI-H2228-Luc cells xenografted in CB17.Cg.Prkdc-scid Lystbg-j/CrlCrlj mouse assessed as prolonged reduction in tumor volume (cancer free) at 25 mg/kg, po administered every day (35 administration in total) measured after 8 days of last dose; format: functional, organism-based; conditions: time 43.0 day
NCI-H2228-Luc [18] = experiment: In vivo antitumor activity against human NCI-H2228-Luc cells xenografted in CB17.Cg.Prkdc-scid Lystbg-j/CrlCrlj mouse assessed as prolonged reduction in tumor volume at 25 mg/kg, po administered every day (35 administration in total) measured after 77 days of last dose; format: functional, organism-based; conditions: time 77.0 day
NCI-H2228-Luc [19] = experiment: In vivo antitumor activity against human NCI-H2228-Luc cells xenografted in CB17.Cg.Prkdc-scid Lystbg-j/CrlCrlj mouse assessed as prolonged reduction in tumor volume (cancer free) at 25 mg/kg, po administered every day (35 administration in total) measured after 15 days of last dose; format: functional, organism-based; conditions: time 50.0 day
NCI-H2228-Luc [20] = experiment: In vivo antitumor activity against human NCI-H2228-Luc cells xenografted in CB17.Cg.Prkdc-scid Lystbg-j/CrlCrlj mouse assessed as prolonged reduction in tumor volume at 25 mg/kg, po administered every day (35 administration in total) measured after 70 days of last dose; format: functional, organism-based; conditions: time 70.0 day

## CN(C)CCCNC(=O)c1cc(NC(=O)c2cc(NC(=O)c3nc(NC(=O)c4nc(NC(=O)CCCNC(=O)c5cc(NC(=O)c6cc(NC(=O)c7nc(NC(=O)c8nc(NC(=O)CCNC(=O)CCCc9ccc(N(CCCl)CCCl)cc9)cn8C)cn7C)cn6C)cn5C)cn4C)cn3C)cn2C)cn1C
NCI-H2228-Luc [1]
  Activity: inactive
BJ
  Activity: Non-Toxic

## CN(C)CCCNC(=O)c1cc(NC(=O)c2cc(NC(=O)c3cc(NC(=O)c4cc(NC(=O)CCCNC(=O)c5nc(NC(=O)c6nc(NC(=O)c7cc(NC(=O)c8nc(NC(=O)CCNC(=O)CCCc9ccc(N(CCCl)CCCl)cc9)cn8C)cn7C)cn6C)cn5C)cn4C)cn3C)cn2C)cn1C
NCI-H2228-Luc [2]
  Activity: Dose-Dependent Effect
BJ
  Activity: Non-Toxic
NCI-H2228-Luc [3]
  Activity: Active
NCI-H2228-Luc [4]
  Activity: Active
NCI-H2228-Luc [5]
  Activity: Active
NCI-H2228-Luc [6]
  Activity: Dose-Dependent Effect
NCI-H2228-Luc [7]
  Activity: Active
NCI-H2228-Luc [8]
  Activity: Active
NCI-H2228-Luc [9]
  Activity: Active
NCI-H2228-Luc [10]
  Activity: Active
[11]
  Activity: Non-Toxic
NCI-H2228-Luc [12]
  Activity: Active
[13]
  Activity: Non-Toxic
[14]
  Activity: Non-Toxic
[15]
  Activity: Non-Toxic

## O=C(O)CCCc1ccc(N(CCCl)CCCl)cc1 [CHLORAMBUCIL]
NCI-H2228-Luc [1]
  Activity: inactive
BJ
  Activity: Non-Toxic

## CN(C)CCCNC(=O)c1cc(NC(=O)c2cc(NC(=O)c3cc(NC(=O)c4cc(NC(=O)CCCNC(=O)c5nc(NC(=O)c6nc(NC(=O)c7cc(NC(=O)c8nc(NC(=O)CCNC(=O)CCCc9ccc(N(CCO)CCO)cc9)cn8C)cn7C)cn6C)cn5C)cn4C)cn3C)cn2C)cn1C
NCI-H2228-Luc [1]
  Activity: inactive
BJ
  Activity: Non-Toxic

## CCc1cc2c(cc1N1CCC(N3CCOCC3)CC1)C(C)(C)c1[nH]c3cc(C#N)ccc3c1C2=O
NCI-H2228-Luc [16]
  Activity: Active
NCI-H2228-Luc [17]
  Activity: Active
NCI-H2228-Luc [18]
  Activity: inactive

## Cc1cc(Nc2ncc(Cl)c(Nc3ccccc3S(=O)(=O)C(C)C)n2)c(OC(C)C)cc1C1CCNCC1
NCI-H2228-Luc [16]
  Activity: Active
NCI-H2228-Luc [19]
  Activity: Active
NCI-H2228-Luc [20]
  Activity: inactive
